Measurements: US20220296595A1, “CDK INHIBITORS” (QILU REGOR THERAPEUTICS INC., priority 2019, published 2022)
Like-named read-outs stand apart in the source and are kept apart here.

Experiments:
T47D breast cancer cells = assay: Anti-proliferation assay in T47D cell (Cyquant, day 6); type: cell-based, human; details: Homo sapiens, T47D, anti-proliferation, T47D cells; read-out: T47D IC50
Method in brief: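 A ten-point, 3-fold compound series (10 μM down to 0.51 nM) was applied to overnight-settled cells in 10% FBS RPMI 1640, and DNA content was read by CyQuant fluorescence 6 days later. An untreated plate read before dosing served as baseline for subtraction before IC50 fitting.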

CDK4/CyclinD1 = molecular target: T1, CDK4/CyclinD1 (Homo sapiens, UniProt P11802); assay: Assay for inhibition of CDK4/CyclinD1 (Caliper microfluidic kinase assay); type: biochemical
T1 construct: purchased Thermofisher PR8064A
T1 sequence (P11802 whole entry): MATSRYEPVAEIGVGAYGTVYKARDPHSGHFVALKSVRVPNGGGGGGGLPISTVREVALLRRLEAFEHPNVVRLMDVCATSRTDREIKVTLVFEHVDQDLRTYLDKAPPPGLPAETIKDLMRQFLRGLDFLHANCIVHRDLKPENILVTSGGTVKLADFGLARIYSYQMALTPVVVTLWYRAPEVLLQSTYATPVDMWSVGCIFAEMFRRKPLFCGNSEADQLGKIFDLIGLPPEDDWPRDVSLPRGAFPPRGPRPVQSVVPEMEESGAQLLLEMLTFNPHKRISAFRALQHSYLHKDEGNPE
T1 sequence (P24385 whole entry partner): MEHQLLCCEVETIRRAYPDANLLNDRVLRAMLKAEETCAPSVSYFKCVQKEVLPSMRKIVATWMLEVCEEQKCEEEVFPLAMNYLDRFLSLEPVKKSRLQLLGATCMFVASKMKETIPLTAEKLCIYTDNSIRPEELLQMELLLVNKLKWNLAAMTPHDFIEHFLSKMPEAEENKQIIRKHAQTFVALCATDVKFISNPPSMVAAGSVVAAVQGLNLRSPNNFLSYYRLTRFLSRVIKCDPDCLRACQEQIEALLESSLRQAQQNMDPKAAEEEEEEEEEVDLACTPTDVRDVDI
Method in brief: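 IC50 was obtained by 4-parameter sigmoidal fitting after 1 nM CDK4/CyclinD1, 200 μM ATP and 1 μM FL-34 substrate reacted for 3 h at room temperature (pH 7.5 HEPES, 10 mM MgCl2). After EDTA quench, substrate and product were separated and detected on a Caliper microfluidic chip.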

CDK2/CyclinE1 = molecular target: T2, CDK2/CyclinE1 (Homo sapiens, UniProt P24941); assay: Assay for inhibition of CDK2/CyclinE1 (Caliper microfluidic kinase assay); type: biochemical; details: read-out: CDK2 IC50
T2 construct: purchased SignalChem C29-18G
Method in brief: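 IC50 came from 4-parameter fits of substrate-to-product conversion, separated on a Caliper chip after an EDTA stop. Reactions ran 3 hours at room temperature with 100 μM ATP, 5 μM fluorescent FL-18 peptide and 5 nM enzyme in 100 mM HEPES pH 7.5, 10 mM MgCl2.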

CDK6/CyclinD3 = molecular target: T3, CDK6/CyclinD3 (Homo sapiens, UniProt Q00534); assay: Assay for inhibition of CDK6/CyclinD3 (Caliper microfluidic kinase assay); type: biochemical
T3 construct: purchased Carna 04-107
T3 sequence (Q00534 whole entry): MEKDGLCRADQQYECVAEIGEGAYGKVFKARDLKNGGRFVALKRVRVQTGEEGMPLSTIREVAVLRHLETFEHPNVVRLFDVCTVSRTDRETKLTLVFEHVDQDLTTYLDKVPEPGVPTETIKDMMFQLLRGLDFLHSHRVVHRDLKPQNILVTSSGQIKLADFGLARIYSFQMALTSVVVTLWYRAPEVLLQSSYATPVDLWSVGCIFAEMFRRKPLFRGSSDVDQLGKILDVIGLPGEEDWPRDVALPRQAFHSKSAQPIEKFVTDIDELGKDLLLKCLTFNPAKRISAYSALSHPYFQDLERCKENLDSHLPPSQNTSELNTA
T3 sequence (P30281 whole entry partner): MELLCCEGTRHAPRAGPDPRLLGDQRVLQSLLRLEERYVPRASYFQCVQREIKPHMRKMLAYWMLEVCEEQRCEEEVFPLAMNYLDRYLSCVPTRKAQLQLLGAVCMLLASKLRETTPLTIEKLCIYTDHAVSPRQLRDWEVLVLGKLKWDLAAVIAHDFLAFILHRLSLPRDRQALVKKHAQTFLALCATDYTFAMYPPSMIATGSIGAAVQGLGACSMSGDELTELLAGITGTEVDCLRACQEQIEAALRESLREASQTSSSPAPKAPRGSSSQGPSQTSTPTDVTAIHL
Method in brief: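 IC50s came from four-parameter dose-response fits of microfluidic substrate/product separation data. Reactions held 2 nM CDK6/CyclinD3, 300 μM ATP and 1 μM 5-FAM peptide FL-34 in pH 7.5 HEPES/MgCl2 buffer, ran 3 hours at room temperature, then were quenched with EDTA.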

[1] = test system: phosphorylation of Retinoblastoma Protein (pRb Ser807/811 or Ser780) in T47D cells; assay: Inhibition of phosphorylation of retinoblastoma protein (pRb) in T47D cell (ELISA); type: cell-based, human; details: Homo sapiens, T47D, read-out: Phospho T47D Ser807 IC50, pRb Ser807 phosphorylation, T47D cells
Method in brief: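 T47D cells in RPMI 1640 + 10% FBS, adhered overnight, then treated 24 h with 3-fold compound titrations (top concentration […]). Lysates assayed by sandwich ELISA for pRb Ser807/811 or Ser780 with HRP/TMB detection. IC50 from 4-parameter sigmoidal fit.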

Compound | IC50 (T47D breast cancer cells) [nM] | IC50 (CDK4/CyclinD1; CDK4/CyclinD1, 200 μM ATP) [nM] | IC50 (CDK2/CyclinE1; CDK2/CyclinE1, 100 μM ATP) [nM] | IC50 (CDK6/CyclinD3; CDK6/CyclinD3, 300 μM ATP) [nM] | IC50 [1] [nM] | IC50 (CDK4/CyclinD1; CDK4/CyclinD1) [nM] | IC50 (CDK2/CyclinE1; CDK2/CyclinE1) [nM] | IC50 (CDK6/CyclinD3; CDK6/CyclinD3) [nM]
CC(C)c1cnn2ccc(-c3nc(Nc4ccc(N5CCC(N(C)C)CC5=O)cn4)ncc3F)cc12 (stereo not shown) [compound 3] | < 100 | < 10 | 10 to 100 | 10 to 100 | < 100 |  |  | 
CC(C)c1cnn2ccc(-c3nc(Nc4ccc(N5CCOCC5=O)cc4F)ncc3F)cc12 [compound 7] | 100 to 500 | < 10 | < 10 | 10 to 100 | 100 to 500 |  |  | 
CC(C)c1cnn2ccc(-c3nc(Nc4ccc(N5CCOCC5=O)cc4)ncc3F)cc12 [compound 25] | < 100 | < 10 | < 10 | 10 to 100 | < 100 |  |  | 
CC(C)c1cnn2ccc(-c3nc(Nc4ccc(N5CCOCC5=O)c(F)c4)ncc3F)cc12 [compound 26] | 100 to 500 | < 10 | < 10 | 10 to 100 | < 100 |  |  | 
CC(C)c1cnn2ccc(-c3nc(Nc4ccc(S(N)(=O)=O)cc4)ncc3F)cc12 [compound 27] | < 100 | 10 to 100 | < 10 | 100 to 1000 | 100 to 500 |  |  | 
CC(C)c1cnn2ccc(-c3ccnc(Nc4ccc(N5CCOCC5=O)cn4)n3)cc12 [compound 28] | < 100 | < 10 | < 10 | 10 to 100 | < 100 |  |  | 
CC(C)c1cnn2ccc(-c3ccnc(Nc4ccc(N5CCCNCC5=O)cn4)n3)cc12 [compound 30] | 100 to 500 | < 10 | 10 to 100 | 10 to 100 | < 100 |  |  | 
CC(C)c1cnn2cc(-c3ccnc(Nc4ccc(N5CCNCCC5=O)cn4)n3)ccc12 [compound 31] | < 100 | < 10 | 10 to 100 | 10 to 100 | < 100 |  |  | 
CC(C)c1cnn2ccc(-c3nc(Nc4ccc(N5CCCNCC5=O)cn4)ncc3F)cc12 [compound 33] | < 100 | < 10 | 10 to 100 | 10 to 100 | < 100 |  |  | 
CC(C)c1cnn2ccc(-c3nc(Nc4ccc(N5CCNCCC5=O)cn4)ncc3F)cc12 [compound 34] | < 100 | < 10 | 10 to 100 | 10 to 100 | < 100 |  |  | 
CC(C)c1cnn2ccc(-c3ccnc(Nc4ccc(N5CCNCC5=O)cn4)n3)cc12 [compound 37] | < 100 | < 10 | < 10 | 10 to 100 | < 100 |  |  | 
CC(C)c1cnn2ccc(-c3ccnc(Nc4ccc(N5CCN(C6CCNCC6)CC5=O)cn4)n3)cc12 [compound 41] | < 100 | < 10 | 10 to 100 | 10 to 100 | < 100 |  |  | 
CC(C)c1cnn2ccc(-c3nc(Nc4ccc(N5CCN(C6CNC6)CCC5=O)cn4)ncc3F)cc12 [compound 42] | < 100 | < 10 | 10 to 100 | 10 to 100 | < 100 |  |  | 
CCN1CCC(Cn2ccc(Nc3ncc(F)c(-c4ccn5ncc(C(C)C)c5c4)n3)cc2=O)CC1 [compound 44] | > 1000 | < 10 | 100 to 1000 | 10 to 100 | 500 to 1000 |  |  | 
CCN1CCC(COc2cc(Nc3ncc(F)c(-c4ccn5ncc(C(C)C)c5c4)n3)ccn2)CC1 [compound 45] | 100 to 500 | < 10 | < 10 | 10 to 100 | 500 to 1000 |  |  | 
CC(C)c1cnn2ccc(-c3nc(Nc4ccc(N5CCN(C)CCC5=O)cn4)ncc3F)cc12 [compound 46] | < 100 | < 10 | 10 to 100 | 10 to 100 | < 100 |  |  | 

Compound | IC50 (T47D breast cancer cells) [nM] | IC50 (CDK4/CyclinD1; CDK4/CyclinD1, 200 μM ATP) [nM] | IC50 (CDK2/CyclinE1; CDK2/CyclinE1, 100 μM ATP) [nM] | IC50 (CDK6/CyclinD3; CDK6/CyclinD3, 300 μM ATP) [nM] | IC50 [1] [nM] | IC50 (CDK4/CyclinD1; CDK4/CyclinD1) [nM] | IC50 (CDK2/CyclinE1; CDK2/CyclinE1) [nM] | IC50 (CDK6/CyclinD3; CDK6/CyclinD3) [nM]
CCN1CCC(=O)N(c2ccc(Nc3ncc(F)c(-c4ccn5ncc(C(C)C)c5c4)n3)nc2)CC1 [compound 47] | < 100 | < 10 | 10 to 100 | 10 to 100 | < 100 |  |  | 
CCN1CCN(c2ccc(Nc3ncc(F)c(-c4ccn5ncc(C(C)C)c5c4)n3)nc2)C(=O)C1 [compound 48] | < 100 | < 10 | 10 to 100 | 10 to 100 | < 100 |  |  | 
CC(C)c1cnn2ccc(-c3nc(Nc4ccc(N5CCN(S(C)(=O)=O)CC5=O)cn4)ncc3F)cc12 [compound 51] | < 100 | < 10 | 10 to 100 | 10 to 100 | < 100 |  |  | 
CC(C)c1cnn2ccc(-c3nc(Nc4ccc(N5CCN(CC(F)(F)F)CC5=O)cn4)ncc3F)cc12 [compound 53] | 100 to 500 | < 10 | 10 to 100 | 10 to 100 | < 100 |  |  | 
CC(C)n1cnc2c(OC(F)F)nc(-c3ccnc(Nc4ccc(N5CCOCC5=O)cn4)n3)cc21 [compound 63] | 100 to 500 |  |  |  | < 100 | < 10 | 100 to 1000 | 10 to 100
COc1nc(-c2ccnc(Nc3ccc(CN4CCC(C#N)CC4)cn3)n2)cc2c1ncn2C(C)C [compound 68] | 100 to 500 |  |  |  | < 100 | < 10 | > 1000 | 10 to 100
COc1nc(-c2nc(Nc3ccc(N4CCC(N(C)C)CC4)cn3)ncc2F)cc2c1ncn2C(C)C [compound 70] | 100 to 500 |  |  |  | < 100 | < 10 | > 1000 | 10 to 100
COc1nc(-c2nc(Nc3ccc(N4CCOCCC4=O)cn3)ncc2F)cc2c1nc(C)n2C(C)C [compound 73] | 500 to 1000 |  |  |  | < 100 | < 10 | > 1000 | 10 to 100
COc1nc(-c2nc(Nc3ccc(N4CCCOCC4=O)cn3)ncc2F)cc2c1nc(C)n2C(C)C [compound 74] | 100 to 500 |  |  |  | 100 to 500 | < 10 | > 1000 | 10 to 100
COc1nc(-c2ccnc(Nc3ccc(N4CCOCC4=O)cn3)n2)cc2c1nc(C)n2C(C)C [compound 77] | 100 to 500 |  |  |  | < 100 | < 10 | 100 to 1000 | 10 to 100
COc1nc(-c2nc(Nc3ccc(N4CCOCC4=O)cn3)ncc2F)cc2c1ncn2C(C)C [compound 78] | < 100 |  |  |  | < 100 | < 10 | 100 to 1000 | 10 to 100
COc1nc(-c2ccnc(Nc3ccc(C(=O)N4CCC(NC5CC5)C4)cc3)n2)cc2c1ncn2C(C)C (stereo not shown) [compound 80] | 100 to 500 |  |  |  | < 100 | < 10 | < 10 | 10 to 100
COc1nc(-c2nc(Nc3ccc(N4CCOCC4=O)cn3)ncc2Cl)cc2c1nc(C)n2C(C)C [compound 83] | < 100 |  |  |  | < 100 | < 10 | 100 to 1000 | < 10
COc1nc(-c2ccnc(Nc3ccc(N4CCC(N(C)C)CC4=O)cn3)n2)cc2c1ncn2C(C)C (stereo not shown) [compound 91] | < 100 |  |  |  | < 100 | < 10 | 100 to 1000 | < 10
COc1nc(-c2nc(Nc3ccc(N4CCCCC4=O)cn3)ncc2F)cc2c1nc(C)n2C(C)C [compound 93] | 100 to 500 |  |  |  | 100 to 500 | < 10 | > 1000 | 10 to 100
COc1nc(-c2nc(Nc3ccc(N4CCC(N(C)C)CC4)cn3)ncc2F)cc2c1nc(C)n2C(C)C [compound 94] | < 100 |  |  |  | 100 to 500 | < 10 | > 1000 | 10 to 100
